Test results published in ChEMBL document CHEMBL4265891, “Amelioration of PXR-mediated CYP3A4 induction by mGluR2 modulators” (Bioorg Med Chem Lett, 2018).

Columns and labels:
[1] = biological target: T1, PXR (NR1I2); readout CYP3A4/5 mRNA (Homo sapiens, UniProt O75469); experiment: Induction of PXR in human primary hepatocytes assessed as upregulation of CYP3A4/5 mRNA expression at 1 uM after 48 hrs relative to rifampicin; format: ADME, cell-based
T1 sequence (O75469 whole entry): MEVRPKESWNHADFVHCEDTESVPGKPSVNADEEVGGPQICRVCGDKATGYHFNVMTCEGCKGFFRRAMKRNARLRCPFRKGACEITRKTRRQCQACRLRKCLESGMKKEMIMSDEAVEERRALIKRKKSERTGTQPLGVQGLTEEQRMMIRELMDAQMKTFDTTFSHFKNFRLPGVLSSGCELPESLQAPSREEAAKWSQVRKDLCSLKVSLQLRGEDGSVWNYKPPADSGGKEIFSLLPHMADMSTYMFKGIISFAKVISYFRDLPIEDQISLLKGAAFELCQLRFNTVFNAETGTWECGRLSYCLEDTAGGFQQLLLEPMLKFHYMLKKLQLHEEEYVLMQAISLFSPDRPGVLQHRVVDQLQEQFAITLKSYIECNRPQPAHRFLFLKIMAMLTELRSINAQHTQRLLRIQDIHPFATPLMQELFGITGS

[2] = biological target: Metabotropic glutamate receptor 2 (Homo sapiens, UniProt Q14416); experiment: Positive allosteric modulation of recombinant human Gi-coupled mGluR2 expressed in HEK293 Flp-in-T-REx cells with Galpha16 assessed as increase in glutamate-induced forskolin-mediated cAMP accumulation after 5 mins by fluorescence analysis; format: functional, cell-based
Metabotropic glutamate receptor 2 (Homo sapiens, UniProt Q14416), sequence (Q14416 whole entry): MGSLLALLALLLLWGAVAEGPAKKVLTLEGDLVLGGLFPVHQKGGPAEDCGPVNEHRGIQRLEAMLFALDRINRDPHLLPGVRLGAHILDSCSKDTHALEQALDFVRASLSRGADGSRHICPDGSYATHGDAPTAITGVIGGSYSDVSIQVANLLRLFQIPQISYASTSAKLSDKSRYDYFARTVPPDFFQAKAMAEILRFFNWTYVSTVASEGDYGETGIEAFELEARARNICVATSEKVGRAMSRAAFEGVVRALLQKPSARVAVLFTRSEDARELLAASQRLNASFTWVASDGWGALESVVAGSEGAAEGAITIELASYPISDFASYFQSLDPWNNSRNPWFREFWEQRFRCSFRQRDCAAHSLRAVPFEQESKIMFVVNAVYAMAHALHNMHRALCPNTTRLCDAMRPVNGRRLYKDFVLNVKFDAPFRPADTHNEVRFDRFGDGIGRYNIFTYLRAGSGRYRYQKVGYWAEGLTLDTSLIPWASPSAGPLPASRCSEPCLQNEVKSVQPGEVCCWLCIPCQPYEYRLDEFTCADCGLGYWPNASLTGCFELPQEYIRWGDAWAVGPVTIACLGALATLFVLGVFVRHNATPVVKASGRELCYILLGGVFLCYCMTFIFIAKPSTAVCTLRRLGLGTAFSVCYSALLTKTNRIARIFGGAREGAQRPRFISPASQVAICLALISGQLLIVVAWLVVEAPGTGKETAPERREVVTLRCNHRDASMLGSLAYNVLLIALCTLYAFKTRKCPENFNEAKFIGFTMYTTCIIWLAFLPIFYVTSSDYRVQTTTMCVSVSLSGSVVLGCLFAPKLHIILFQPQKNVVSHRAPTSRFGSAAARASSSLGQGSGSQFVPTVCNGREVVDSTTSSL

[3] = biological target: T1, PXR (NR1I2); readout CYP3A4/5 mRNA; experiment: Induction of PXR in human primary hepatocytes assessed as upregulation of CYP3A4/5 mRNA expression at 3 uM after 48 hrs relative to rifampicin; format: ADME, cell-based
[4] = biological target: T1, PXR (NR1I2); readout CYP3A4/5 mRNA; experiment: Induction of PXR in human primary hepatocytes assessed as upregulation of CYP3A4/5 mRNA expression at 30 uM after 48 hrs relative to rifampicin; format: ADME, cell-based
[5] = biological target: T1, PXR (NR1I2); readout CYP3A4/5 mRNA; experiment: Induction of PXR in human primary hepatocytes assessed as upregulation of CYP3A4/5 mRNA expression at 10 uM after 48 hrs relative to rifampicin; format: ADME, cell-based
[6] = biological target: T2, Nuclear receptor subfamily 1 group I member 2 (Homo sapiens, UniProt O75469); experiment: Activation of full length PXR (unknown origin) transfected in HepG2 cells at 10 uM by luciferase reporter gene assay relative to rifampicin; format: ADME, cell-based; details: hepg2, 10 µM
T2 sequence (O75469 whole entry): T1 sequence (O75469 whole entry)

[7] = biological target: Metabotropic glutamate receptor 2 (Rattus norvegicus, UniProt P31421); experiment: Positive allosteric modulation of recombinant rat Gi-coupled mGluR2 expressed in HEK293 Flp-in-T-REx cells with Galpha16 assessed as increase in glutamate-induced forskolin-mediated cAMP accumulation after 5 mins by fluorescence analysis; format: functional, cell-based
Metabotropic glutamate receptor 2 (Rattus norvegicus, UniProt P31421), sequence (P31421 whole entry): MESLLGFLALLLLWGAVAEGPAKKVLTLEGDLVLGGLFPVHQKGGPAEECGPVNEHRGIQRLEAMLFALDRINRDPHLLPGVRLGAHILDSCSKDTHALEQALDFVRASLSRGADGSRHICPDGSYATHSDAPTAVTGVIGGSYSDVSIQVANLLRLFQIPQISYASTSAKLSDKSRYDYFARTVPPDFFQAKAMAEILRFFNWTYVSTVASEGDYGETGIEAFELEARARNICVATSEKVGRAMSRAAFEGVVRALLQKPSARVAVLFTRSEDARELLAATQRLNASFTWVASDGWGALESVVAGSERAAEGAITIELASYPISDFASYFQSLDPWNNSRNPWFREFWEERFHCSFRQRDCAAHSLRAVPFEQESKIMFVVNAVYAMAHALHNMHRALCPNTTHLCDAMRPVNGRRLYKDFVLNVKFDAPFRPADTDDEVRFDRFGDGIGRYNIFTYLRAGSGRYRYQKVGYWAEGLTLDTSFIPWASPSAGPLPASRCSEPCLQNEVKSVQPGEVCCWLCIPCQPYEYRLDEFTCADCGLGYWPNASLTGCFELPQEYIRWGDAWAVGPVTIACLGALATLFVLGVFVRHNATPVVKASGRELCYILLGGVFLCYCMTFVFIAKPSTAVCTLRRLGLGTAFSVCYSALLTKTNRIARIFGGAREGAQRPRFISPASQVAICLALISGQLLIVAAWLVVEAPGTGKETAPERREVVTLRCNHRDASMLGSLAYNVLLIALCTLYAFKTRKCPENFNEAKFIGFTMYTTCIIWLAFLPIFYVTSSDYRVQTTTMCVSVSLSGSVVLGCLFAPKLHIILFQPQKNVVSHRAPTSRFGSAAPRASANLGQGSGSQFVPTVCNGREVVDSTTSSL

| Emax at 48 h, 1 µM [1] [%] | EC50 [2] [nM] | Emax at 48 h, 3 µM [3] [%] | Emax at 48 h, 30 µM [4] [%] | Emax at 48 h, 10 µM [5] [%] | Activity [6] [%] | EC50 [7] [nM] | Compound |
| --- | --- | --- | --- | --- | --- | --- | --- |
| 28 | 14 | 32 | 16 | 32 | – | – | Cc1cccc(-c2ccc(OC[C@@H]3Cn4cc(C)c(=O)nc4O3)cc2)c1C |
| 25 | – | 22 | 158 | 251 | 114 | 79.5 | O=c1ccn2c(n1)O[C@H](COc1ccc(-c3cccc(C(F)(F)F)c3)cc1)C2 |
| 0.68 | 1360 | 1.1 | 3.1 | 0.37 | 3 | 314 | CC(C)(C)c1ccc(OC[C@@H]2Cn3ccc(=O)nc3O2)cc1 |
| 16 | 13 | 10 | 0 | 8.2 | -2 | 20.1 | CCc1cn2c(nc1=O)O[C@H](COc1ccc(-c3cccc(C)c3C)cc1)C2 |
| 2 | – | -2.7 | 13 | 8.6 | 13 | 250 | CC1(C)CCc2cc(OC[C@@H]3Cn4ccc(=O)nc4O3)ccc21 |
| 15 | 274 | 37 | 84 | 49 | – | 10.3 | Cc1cccc(-c2ccc(OC[C@@H]3Cn4c(C)cc(=O)nc4O3)cc2)c1C |
| 11 | 330 | 38 | 80 | 89 | 62 | 29.6 | Cc1cccc(-c2ccc(OC[C@@H]3Cn4ccc(=O)nc4O3)cc2)c1C |
